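1) Cells in 96-well plates. 2) Compound, 48 h, 5 concentrations. 3) Linear interpolation between surrounding doses. 4) Unreached endpoint = highest concentration. TGI marks complete inhibition of growth.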
How the values were obtained:
Experiment in all cases: NCI tumour cell line growth inhibition, 48 h
SW-620 colon = system: SW-620 colon
OVCAR-3 ovarian = system: OVCAR-3 ovarian
UO-31 renal = system: UO-31 renal
HOP-18 NSCLC = system: HOP-18 NSCLC
MALME-3M melanoma = system: MALME-3M melanoma
DMS 114 small cell lung = system: DMS 114 small cell lung
U251 CNS = system: U251 CNS
ACHN renal = system: ACHN renal
RXF 393 renal = system: RXF 393 renal
HT29 colon = system: HT29 colon
NCI-H226 lung = system: NCI-H226 lung
OVCAR-5 ovarian = system: OVCAR-5 ovarian
NCI-H460 lung = system: NCI-H460 lung
HCT-116 colon = system: HCT-116 colon
SK-OV-3 ovarian = system: SK-OV-3 ovarian
SF-268 CNS = system: SF-268 CNS
MOLT-4 leukemia = system: MOLT-4 leukemia
KM12 colon = system: KM12 colon
OVCAR-8 ovarian = system: OVCAR-8 ovarian
COLO 205 colon = system: COLO 205 colon
A549 NSCLC = system: A549 NSCLC
M14 melanoma = system: M14 melanoma
SK-MEL-2 melanoma = system: SK-MEL-2 melanoma
786-0 renal = system: 786-0 renal
LOX IMVI melanoma = system: LOX IMVI melanoma
HCT-15 colon = system: HCT-15 colon
KM20L2 colon = system: KM20L2 colon
HCC-2998 colon = system: HCC-2998 colon
UACC-257 melanoma = system: UACC-257 melanoma
RXF-631 renal = system: RXF-631 renal
SNB-78 CNS = system: SNB-78 CNS
M19-MEL melanoma = system: M19-MEL melanoma
HOP-62 NSCLC = system: HOP-62 NSCLC
EKVX NSCLC = system: EKVX NSCLC
RPMI-8226 leukemia = system: RPMI-8226 leukemia
SF-539 CNS = system: SF-539 CNS
TK-10 renal = system: TK-10 renal
HL-60(TB) leukemia = system: HL-60(TB) leukemia
UACC-62 melanoma = system: UACC-62 melanoma
SNB-75 CNS = system: SNB-75 CNS
XF 498 CNS = system: XF 498 CNS
SK-MEL-28 melanoma = system: SK-MEL-28 melanoma
NCI-H522 lung = system: NCI-H522 lung
SNB-19 CNS = system: SNB-19 CNS
SF-295 CNS = system: SF-295 CNS
SN12C renal = system: SN12C renal
K-562 leukemia = system: K-562 leukemia
OVCAR-4 ovarian = system: OVCAR-4 ovarian
A498 renal = system: A498 renal
DLD-1 colon = system: DLD-1 colon
NCI-H23 lung = system: NCI-H23 lung
CCRF-CEM leukemia = system: CCRF-CEM leukemia

Structure (SMILES): O=C(CC1(O)C(=O)Nc2ccc([N+](=O)[O-])cc21)c1ccncc1 (configuration not stated)
- TGI (SW-620 colon): 47.9 µM
- TGI (OVCAR-3 ovarian): 65 µM
- TGI (UO-31 renal): > 100 µM
- TGI (HOP-18 NSCLC): > 100 µM
- TGI (MALME-3M melanoma): 66.2 µM
- TGI (DMS 114 small cell lung): 82.8 µM
- TGI (U251 CNS): 66.1 µM
- TGI (ACHN renal): > 100 µM
- TGI (RXF 393 renal): 64.4 µM
- TGI (HT29 colon): > 100 µM
- TGI (NCI-H226 lung): > 100 µM
- TGI (OVCAR-5 ovarian): > 100 µM
- TGI (NCI-H460 lung): > 100 µM
- TGI (HCT-116 colon): > 100 µM
- TGI (SK-OV-3 ovarian): > 100 µM
- TGI (SF-268 CNS): > 100 µM
- TGI (MOLT-4 leukemia): 70.1 µM
- TGI (KM12 colon): > 100 µM
- TGI (OVCAR-8 ovarian): > 100 µM
- TGI (COLO 205 colon): > 100 µM
- TGI (A549 NSCLC): > 100 µM
- TGI (M14 melanoma): > 100 µM
- TGI (SK-MEL-2 melanoma): > 100 µM
- TGI (786-0 renal): > 100 µM
- TGI (LOX IMVI melanoma): 29.3 µM
- TGI (HCT-15 colon): > 100 µM
- TGI (KM20L2 colon): > 100 µM
- TGI (HCC-2998 colon): > 100 µM
- TGI (UACC-257 melanoma): 32.9 µM
- TGI (RXF-631 renal): 54.7 µM
- TGI (SNB-78 CNS): > 100 µM
- TGI (M19-MEL melanoma): 63.1 µM
- TGI (HOP-62 NSCLC): > 100 µM
- TGI (EKVX NSCLC): > 100 µM
- TGI (RPMI-8226 leukemia): 68.6 µM
- TGI (SF-539 CNS): > 100 µM
- TGI (TK-10 renal): > 100 µM
- TGI (HL-60(TB) leukemia): 56.5 µM
- TGI (UACC-62 melanoma): > 100 µM
- TGI (SNB-75 CNS): 98.8 µM
- TGI (XF 498 CNS): 34.2 µM
- TGI (SK-MEL-28 melanoma): > 100 µM
- TGI (NCI-H522 lung): 71.5 µM
- TGI (SNB-19 CNS): > 100 µM
- TGI (SF-295 CNS): > 100 µM
- TGI (SN12C renal): > 100 µM
- TGI (K-562 leukemia): 75.1 µM
- TGI (OVCAR-4 ovarian): 40.9 µM
- TGI (A498 renal): > 100 µM
- TGI (DLD-1 colon): > 100 µM
- TGI (NCI-H23 lung): 73.1 µM
- TGI (CCRF-CEM leukemia): > 100 µM

Reference: PubChem BioAssay (NCI)
